Measurements reported in ChEMBL document CHEMBL3885861, “Open TG-GATES”.

Species on record: Rattus norvegicus
Test: Open TG-GATES - Regimen: Daily Repeat
Assay type: toxicity, organism-based, Sprague-Dawley
Design: regimen Daily Repeat, gender Male, age 6 weeks
Settings: in vivo, po, 0 mg/kg, route gavage, dose level Control; for APTT / Bas / Eos / Fbg / Hb / Ht / Lym / MCHC / MCV / Mono / Neu / PT / Plat / RBC / Ret / WBC: tissue Blood; for KIDNEY_L / KIDNEY_R / KIDNEY_TOTAL: tissue Kidney; for LIVER: tissue Liver; for ALP / ALT / AST / BUN / CRE / Ca / Cl / DBIL / GLC / IP / K / LDH / Na / PL / RALB / TBIL / TG / TP / gamma-GTP: tissue Plasma

Structure (SMILES): CN(C)C(=N)N=C(N)N [METFORMIN]
- TERMINAL_BW (72 h, time 3 day): 224.4 g
- APTT (72 h, time 3 day): 16.8 s
- Bas (72 h, time 3 day): 0.2%
- Eos (72 h, time 3 day): 1%
- Fbg (72 h, time 3 day): 246.8 mg/dL
- Hb (72 h, time 3 day): 13.1 g/dL
- Ht (72 h, time 3 day): 38.7%
- Lym (72 h, time 3 day): 75.4%
- MCHC (72 h, time 3 day): 34%
- MCV (72 h, time 3 day): 64.1 fL
- Mono (72 h, time 3 day): 3.4%
- Neu (72 h, time 3 day): 19.6%
- PT (72 h, time 3 day): 12.6 s
- Plat (72 h, time 3 day): 121.6 x10_4/uL
- RBC (72 h, time 3 day): 603.2 x10_4/ul
- Ret (72 h, time 3 day): 6.9%
- WBC (72 h, time 3 day): 114.3 x10_2/uL
- KIDNEY_L (72 h, time 3 day): 1 g
- KIDNEY_R (72 h, time 3 day): 1 g
- KIDNEY_TOTAL (72 h, time 3 day): 2 g
- LIVER (72 h, time 3 day): 10.6 g
- ALP (72 h, time 3 day): 1345.6 IU/L
- ALT (72 h, time 3 day): 69.8 IU/L
- AST (72 h, time 3 day): 80.6 IU/L
- BUN (72 h, time 3 day): 13 mg/dL
- CRE (72 h, time 3 day): 0.2 mg/dL
- Ca (72 h, time 3 day): 11 mg/dL
- Cl (72 h, time 3 day): 104.6 meq/L
- DBIL (72 h, time 3 day): 0.014 mg/dL
- GLC (72 h, time 3 day): 184.8 mg/dL
- IP (72 h, time 3 day): 8.5 mg/dL
- K (72 h, time 3 day): 4 meq/L
- LDH (72 h, time 3 day): 69.8 IU/L
- Na (72 h, time 3 day): 140.8 meq/L
- PL (72 h, time 3 day): 143.6 mg/dL
- RALB (72 h, time 3 day): 2.5 g/dL
- TBIL (72 h, time 3 day): 0.034 mg/dL
- TG (72 h, time 3 day): 71.2 mg/dL
- TP (72 h, time 3 day): 5.5 g/dL
- gamma-GTP (72 h, time 3 day): 1 IU/L
- TERMINAL_BW ([…], time 7 day): 255.4 g
- TERMINAL_BW ([…], time 14 day): 310.2 g
- TERMINAL_BW ([…], time 28 day): 386.6 g
- APTT ([…], time 7 day): 16.6 s
- Bas ([…], time 7 day): 0%
- Eos ([…], time 7 day): 1.2%
- Fbg ([…], time 7 day): 272.8 mg/dL
- Hb ([…], time 7 day): 13.6 g/dL
- Ht ([…], time 7 day): 40.1%
- Lym ([…], time 7 day): 77.8%
- MCHC ([…], time 7 day): 34%
- MCV ([…], time 7 day): 64.1 fL
- Mono ([…], time 7 day): 3%
- Neu ([…], time 7 day): 17.6%
- PT ([…], time 7 day): 12 s
- Plat ([…], time 7 day): 126.8 x10_4/uL
- RBC ([…], time 7 day): 626.4 x10_4/ul
- Ret ([…], time 7 day): 6%
- WBC ([…], time 7 day): 90.7 x10_2/uL
- APTT ([…], time 14 day): 18.3 s
- Bas ([…], time 14 day): 0%
- Eos ([…], time 14 day): 0.8%
- Fbg ([…], time 14 day): 252.2 mg/dL
- Hb ([…], time 14 day): 14.1 g/dL
- Ht ([…], time 14 day): 40.7%
- Lym ([…], time 14 day): 77.8%
- MCHC ([…], time 14 day): 34.5%
- MCV ([…], time 14 day): 60.5 fL
- Mono ([…], time 14 day): 3.4%
- Neu ([…], time 14 day): 17.4%
- PT ([…], time 14 day): 12.3 s
- Plat ([…], time 14 day): 123 x10_4/uL
- RBC ([…], time 14 day): 674 x10_4/ul
- Ret ([…], time 14 day): 4.8%
- WBC ([…], time 14 day): 104.1 x10_2/uL
- APTT ([…], time 28 day): 17.2 s
- Bas ([…], time 28 day): 0.2%
- Eos ([…], time 28 day): 1.4%
- Fbg ([…], time 28 day): 260 mg/dL
- Hb ([…], time 28 day): 15 g/dL
- Ht ([…], time 28 day): 43.2%
- Lym ([…], time 28 day): 78.6%
- MCHC ([…], time 28 day): 34.7%
- MCV ([…], time 28 day): 56.9 fL
- Mono ([…], time 28 day): 2.6%
- Neu ([…], time 28 day): 16.8%
- PT ([…], time 28 day): 12.1 s
- Plat ([…], time 28 day): 103.4 x10_4/uL
- RBC ([…], time 28 day): 759.6 x10_4/ul
- Ret ([…], time 28 day): 2.5%
- WBC ([…], time 28 day): 118 x10_2/uL
- KIDNEY_L ([…], time 7 day): 1 g
- KIDNEY_R ([…], time 7 day): 1 g
- KIDNEY_TOTAL ([…], time 7 day): 2.1 g
- KIDNEY_L ([…], time 14 day): 1.2 g
- KIDNEY_R ([…], time 14 day): 1.2 g
- KIDNEY_TOTAL ([…], time 14 day): 2.4 g
- KIDNEY_L ([…], time 28 day): 1.4 g
- KIDNEY_R ([…], time 28 day): 1.4 g
- KIDNEY_TOTAL ([…], time 28 day): 2.8 g
- LIVER ([…], time 7 day): 11.7 g
- LIVER ([…], time 14 day): 14.4 g
- LIVER ([…], time 28 day): 15.6 g
- ALP ([…], time 7 day): 1433.2 IU/L
- ALT ([…], time 7 day): 43.2 IU/L
- AST ([…], time 7 day): 69.6 IU/L
- BUN ([…], time 7 day): 16.4 mg/dL
- CRE ([…], time 7 day): 0.2 mg/dL
- Ca ([…], time 7 day): 11.3 mg/dL
- Cl ([…], time 7 day): 105.2 meq/L
- DBIL ([…], time 7 day): 0.014 mg/dL
- GLC ([…], time 7 day): 187 mg/dL
- IP ([…], time 7 day): 7.8 mg/dL
- K ([…], time 7 day): 4.3 meq/L
- LDH ([…], time 7 day): 66.6 IU/L
- Na ([…], time 7 day): 141.4 meq/L
- PL ([…], time 7 day): 145.2 mg/dL
- RALB ([…], time 7 day): 2.7 g/dL
- TBIL ([…], time 7 day): 0.034 mg/dL
- TG ([…], time 7 day): 91 mg/dL
- TP ([…], time 7 day): 5.9 g/dL
- gamma-GTP ([…], time 7 day): 1 IU/L
- ALP ([…], time 14 day): 1342.2 IU/L
- ALT ([…], time 14 day): 43.2 IU/L
- AST ([…], time 14 day): 81 IU/L
- BUN ([…], time 14 day): 16.4 mg/dL
- CRE ([…], time 14 day): 0.2 mg/dL
- Ca ([…], time 14 day): 11 mg/dL
- Cl ([…], time 14 day): 105.2 meq/L
- DBIL ([…], time 14 day): 0.014 mg/dL
- GLC ([…], time 14 day): 188.2 mg/dL
- IP ([…], time 14 day): 7.1 mg/dL
- K ([…], time 14 day): 4 meq/L
- LDH ([…], time 14 day): 168 IU/L
- Na ([…], time 14 day): 142.8 meq/L
- PL ([…], time 14 day): 150.6 mg/dL
- RALB ([…], time 14 day): 2.7 g/dL
- TBIL ([…], time 14 day): 0.034 mg/dL
- TG ([…], time 14 day): 139.2 mg/dL
- TP ([…], time 14 day): 6 g/dL
- gamma-GTP ([…], time 14 day): 1 IU/L
- ALP ([…], time 28 day): 1085 IU/L
- ALT ([…], time 28 day): 41.8 IU/L
- AST ([…], time 28 day): 60.8 IU/L
- BUN ([…], time 28 day): 16 mg/dL
- CRE ([…], time 28 day): 0.2 mg/dL
- Ca ([…], time 28 day): 11.1 mg/dL
- Cl ([…], time 28 day): 105.4 meq/L
- DBIL ([…], time 28 day): 0.014 mg/dL
- GLC ([…], time 28 day): 176.2 mg/dL
- IP ([…], time 28 day): 6.6 mg/dL
- K ([…], time 28 day): 3.9 meq/L
- LDH ([…], time 28 day): 51.8 IU/L
- Na ([…], time 28 day): 145 meq/L
- PL ([…], time 28 day): 143.4 mg/dL
- RALB ([…], time 28 day): 2.7 g/dL
- TBIL ([…], time 28 day): 0.036 mg/dL
- TG ([…], time 28 day): 134.2 mg/dL
- TP ([…], time 28 day): 6.1 g/dL
- gamma-GTP ([…], time 28 day): 1 IU/L
